Measurements as given in patent US20240376056A1, “PHENYL ACETAMIDE BASED IL-17A MODULATORS AND USES THEREOF” (DiCE Alpha, Inc., priority 2021, published 2024).
pIC50: −log10 of the molar value.

Molecular target: T1, IL-17A/A (Homo sapiens, UniProt Q16552)
T1 construct: purchased Genscript Z03228
T1 sequence (Q16552 24-155): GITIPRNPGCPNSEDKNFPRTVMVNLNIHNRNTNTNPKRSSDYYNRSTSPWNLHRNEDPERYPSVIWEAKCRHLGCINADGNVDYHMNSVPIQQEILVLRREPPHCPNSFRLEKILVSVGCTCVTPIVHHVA
Assay: HEK-Blue IL-17A/A inhibition assay (SEAP reporter)
Format: cell-based
Settings: HEK-Blue cells (HEK 293 expressing IL-17RA, IL-17RC, Act1); IL-17A/A stimulation; 20 hours; SEAP read at A630; 4-parameter fit
Outline: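 HEK 293 cells engineered with IL-17RA, IL-17RC and Act1 (NFκB-driven SEAP) given titrated compound (top final 10, 1 or 0.3 uM; 0.1% DMSO) just before IL-17A/A, then incubated 20 h. SEAP in media developed with Quanti-Blue, read at A630; IC50 by 4-parameter nonlinear fit.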

CC(CN1CCOCC1)n1nccc1C(=O)N[C@H](C(=O)Nc1ccc([C@H](C)C(=O)NCC(F)(F)F)cc1F)C(C1CC1)C1CC1 (single isomer, unassigned) [Compound 92]
pIC50: 6.00 to 7.00

CC(C)n1nccc1C(=O)N[C@H](C(=O)Nc1ccc([C@H](C)C(=O)N2C[C@@H](O)[C@@H](F)C2)cc1F)C(C1CC1)C1CC1 [Compound 31, N-((S)-1.1-dicyclopropyl-3-((2-fluoro-4-((S)-1-((3S,4R)-3-fluoro-4-hydroxypyrrolidin-1-yl)-1-oxopropan-2-yl)phenyl)amino)-3-oxopropan-2-yl)-1-isopropyl-1H-pyrazole-5-carboxamide]
pIC50: < 6.00

CC(C)n1nccc1C(=O)N[C@H](C(=O)Nc1ccc([C@H](C)C(=O)NCC(F)F)cc1F)C(C1CC1)C1CC1 [Compound 17, N-((S)-1,1-dicyclopropyl-3-((4-((S)-1-((2,2-difluoroethyl)amino)-1-oxopropan-2-yl)-2-fluorophenyl)amino)-3-oxopropan-2-yl)-1-isopropyl-1H-pyrazole-5-carboxanide]
pIC50: 6.00 to 7.00

CC(C)n1nccc1C(=O)N[C@H](C(=O)Nc1ccc([C@H](C)C(=O)NC(c2ccccn2)C(F)(F)F)cc1F)C(C1CC1)C1CC1 (stereo partly drawn) [Compound 41, N-((2S)-1,1-dicyclopropyl-3-((2-fluoro-4-((2S)-1-oxo-1-((2,2,2-trifluoro-1-(pyridin-2-yl)ethyl)amino)propan-2-yl)phenyl)amino)-3-oxopropan-2-yl)-1-isopropyl-1 H-pyrazole-5-carboxamide]
pIC50: 6.00 to 7.00

COc1cc(NC(=O)[C@@H](NC(=O)c2ccnn2C(C)C)C(C2CC2)C2CC2)c(F)cc1C(C)C(=O)NC(CO)C(F)(F)F (single isomer, unassigned) [Compound 181]
pIC50: 6.00 to 7.00

COC(=O)C(NC(=O)[C@@H](C)c1ccc(NC(=O)[C@@H](NC(=O)c2ccnn2C(C)C)C(C2CC2)C2CC2)c(F)c1)C(F)(F)F (stereo partly shown) [Compound 62]
pIC50: 6.00 to 7.00

CC(C)n1nccc1C(=O)N[C@H](C(=O)Nc1ccc([C@H](C)C(=O)NC2CC2)cc1F)C(C1CC1)C1CC1 [Compound 16, N-((S)-1,1-dicyclopropyl-3-((4-((S)-1-(cyclopropylamino)-1-oxopropan-2-yl)-2-fluorophenyl)amino)-3-oxopropan-2-yl)-1-isopropyl-1H-pyrazole-5-carboxamide]
pIC50: < 6.00

COCc1cc(NC(=O)[C@@H](NC(=O)c2ccnn2C(C)C)C(C2CC2)C2CC2)c(F)cc1C(C)C(=O)NCC(F)(F)F (single isomer, unassigned) [Compound 125]
pIC50: < 6.00

CC(C)n1nccc1C(=O)N[C@H](C(=O)Nc1ccc([C@H](C)C(=O)N2CCNCC2C(F)(F)F)cc1F)C(C1CC1)C1CC1 (stereo partly drawn) [Compound 101, N-((2S)-1,1-dicyclopropyl-3-((2-fluoro-4-((2S)-1-oxo-1-(2-(trifluoromethyl)piperazin-1-yl)propan-2-yl)phenyl)amino)-3-oxopropan-2-yl)-1-isopropyl-1 H-pyrazole-5-carboxamide]
pIC50: < 6.00

CCn1nccc1C(=O)N[C@H](C(=O)Nc1ccc([C@H](C)C(=O)N2CC(F)(F)C2)cc1F)C(C1CC1)C1CC1 [Compound 15, N-((S)-1,1-dicyclopropyl-3-((4-((S)-1-(3,3-difluoroazetidin-1-yl)-1-oxopropan-2-yl)-2-fluorophenyl)amino)-3-oxopropan-2-yl)-1-ethyl-1H-pyrazole-5-carboxamide]
pIC50: 6.00 to 7.00

CCc1nonc1C(=O)N[C@H](C(=O)Nc1cc(C)c(C(C)C(=O)NCC(F)(F)F)cc1F)C1CCC(F)(F)CC1 (stereo partly shown) [Compound 224]
pIC50: 6.00 to 7.00

CCn1nccc1C(=O)N[C@H](C(=O)Nc1cc(OC(F)(F)F)c(C(C)C(=O)NCC(F)(F)F)cc1F)C(C1CC1)C1CC1 (stereo partly shown) [Compound 248]
pIC50: < 6.00

CC(C)n1nccc1C(=O)N[C@H](C(=O)Nc1ccc([C@H](C)C(=O)N2CCC(N)C2)cc1F)C(C1CC1)C1CC1 (stereo partly drawn) [Compound 132, N-((2S)-1-((4-((2S)-1-(3-aminopyrrolidin-1-yl)-1-oxopropan-2-yl)-2-fluorophenyl)amino)-3,3-dicyclopropyl-1-oxopropan-2-yl)-1-isopropyl-1H-pyrazole-5-carboxamide]
pIC50: < 6.00

CCn1nccc1C(=O)N[C@H](C(=O)Nc1cc(C)c(C(C)C(=O)N(C)CC(F)(F)F)cc1F)C(C1CC1)C1CC1 (single isomer, unassigned) [Compound 76]
pIC50: > 7.00

CCc1nonc1C(=O)N[C@H](C(=O)Nc1cc(C)c(C(C)C(=O)NCC(F)(F)F)cc1F)C(C1CC1)C1CC1 (stereo partly shown) [Compound 206]
pIC50: 6.00 to 7.00

CC(C)n1nccc1C(=O)N[C@H](C(=O)Nc1ccc(C(C(=O)NCC(F)(F)F)N2CCOCC2)cc1F)C(C1CC1)C1CC1 (single isomer, unassigned) [Compound 141]
pIC50: < 6.00

CC(C)n1nccc1C(=O)N[C@H](C(=O)Nc1ccc([C@H](C)C(=O)N2C[C@@H](F)C[C@H]2C(F)(F)F)cc1F)C(C1CC1)C1CC1 [Compound 60, N-((S)-1,1-dicyclopropyl-3-((2-fluoro-4-((S)-1-((2S,4S)-4-fluoro-2-(trifluoromethyl)pyrrolidin-1-yl)-1-oxopropan-2-yl)phenyl)amino)-3-oxopropan-2-yl)-1-isopropyl-1H-pyrazole-5-carboxamide]
pIC50: > 7.00

CC(C)n1nccc1C(=O)N[C@H](C(=O)Nc1ccc([C@H](C)C(=O)N2CCCCC2C(F)(F)F)cc1F)C(C1CC1)C1CC1 (single isomer, unassigned) [Compound 21]
pIC50: 6.00 to 7.00

CC(C(=O)N1CCC(C(N)=O)C1C(F)(F)F)c1cc(F)c(NC(=O)[C@@H](NC(=O)c2ccnn2C(C)C)C(C2CC2)C2CC2)cc1C(F)(F)F (stereo partly shown) [Compound 250]
pIC50: > 7.00

CCn1nccc1C(=O)N[C@H](C(=O)Nc1ccc(C(COC)C(=O)N(C)CC(F)(F)F)cc1F)C1CCCCCC1 (single isomer, unassigned) [Compound 103]
pIC50: > 7.00

CC(C)n1nccc1C(=O)N[C@H](C(=O)Nc1ccc([C@H](C)C(=O)NC(C2CC2)C(F)(F)F)cc1F)C(C1CC1)C1CC1 (stereo partly drawn) [Compound 26, N-((2S)-1,1-dicyclopropyl-3-((4-((2S)-1-((1-cyclopropyl-2,2,2-trifluoroethyl)amino)-1-oxopropan-2-yl)-2-fluorophenyl)amino)-3-oxopropan-2-yl)-1-isopropyl-1H-pyrazole-5-carboxamide]
pIC50: 6.00 to 7.00

CC(C)n1nccc1C(=O)N[C@H](C(=O)Nc1ccc([C@H](C)C(=O)N2C(C(N)=O)CCC2C(F)(F)F)cc1F)C(C1CC1)C1CC1 (single isomer, unassigned) [Compound 146]
pIC50: < 6.00

CC(C(=O)NCC(F)(F)F)c1cc(F)c(NC(=O)[C@@H](NC(=O)c2ccnn2C(C)C)C(C2CC2)C2CC2)cc1C(N)=O (single isomer, unassigned) [Compound 116]
pIC50: < 6.00

CCn1nccc1C(=O)N[C@H](C(=O)Nc1ccc([C@@H](C)C(=O)N(C)CC(F)(F)F)cc1F)C1CCCCCC1 (single isomer, unassigned) [Compound 3]
pIC50: 6.00 to 7.00

CC(C)n1nccc1C(=O)N[C@H](C(=O)Nc1ccc(C(C)(C)C(=O)NCC(F)(F)F)cc1F)C(C1CC1)C1CC1 [Compound 107, (S)-N-(1.1-dicyclopropyl-3-((2-fluoro-4-(2-methyl-1-oxo-1-((2,2,2-trifluoroethyl)amino)propan-2-yl)phenyl)amino)-3-oxopropan-2-yl)-1-isopropyl-1H-pyrazole-5-carboxamide]
pIC50: 6.00 to 7.00

CC(C)n1nccc1C(=O)N[C@H](C(=O)Nc1ccc([C@H](C)C(=O)N2CCOCC2C(F)(F)F)cc1F)C(C1CC1)C1CC1 (single isomer, unassigned) [Compound 19]
pIC50: 6.00 to 7.00

CC(C)n1nccc1C(=O)N[C@H](C(=O)Nc1ccc([C@H](C)C(=O)N(C)CC(F)(F)F)cc1F)C(C1CC1)C1CC1 [Compound 78, N-((S)-1,1-dicyclopropyl-3-((2-fluoro-4-((S)-1-(methyl(2,2,2-trifluoroethyl)amino)-1-oxopropan-2-yl)phenyl)amino)-3-oxopropan-2-yl)-1-isopropyl-1H-pyrazole-5-carboxamide]
pIC50: > 7.00

CC(C(=O)NCC(F)(F)F)c1cc(F)c(NC(=O)[C@@H](NC(=O)c2ccnn2C(C)C)C(C2CC2)C2CC2)cc1N(C)C (stereo partly shown) [Compound 234]
pIC50: < 6.00

COC(=O)Nc1cc(NC(=O)[C@@H](NC(=O)c2ccnn2C(C)C)C(C2CC2)C2CC2)c(F)cc1C(C)C(=O)NCC(F)(F)F (stereo partly shown) [Compound 249]
pIC50: 6.00 to 7.00

CC(C)n1nccc1C(=O)N[C@H](C(=O)Nc1ccc([C@H](C)C(=O)NC(c2ccccc2)C(F)(F)F)cc1F)C(C1CC1)C1CC1 (stereo partly drawn) [Compound 66, N-((2S)-1,1-dicyclopropyl-3-((2-fluoro-4-((2S)-1-oxo-1-((2,2,2-trifluoro-1-phenylethyl)amino)propan-2-yl)phenyl)amino)-3-oxopropan-2-yl)-1-isopropyl-1H-pyrazole-5-carboxamide]
pIC50: 6.00 to 7.00

CC(C(=O)NCC(F)(F)F)c1cc(F)c(NC(=O)[C@@H](NC(=O)c2ccnn2C(C)C)C(C2CC2)C2CC2)cc1N(C)C (stereo partly shown) [Compound 214]
pIC50: < 6.00

Cc1cc(NC(=O)[C@@H](NC(=O)c2ccnn2C)C2CCC(F)(F)CC2)c(F)cc1C(C)C(=O)N(C)CC(F)(F)F (stereo partly shown) [Compound 216]
pIC50: 6.00 to 7.00

CCOC(=O)Nc1cc(NC(=O)[C@@H](NC(=O)c2ccnn2C(C)C)C(C2CC2)C2CC2)c(F)cc1C(C)C(=O)NCC(F)(F)F (stereo partly shown) [Compound 255]
pIC50: < 6.00

CC(C)n1nccc1C(=O)N[C@H](C(=O)Nc1ccc([C@H](C)C(=O)N[C@@H](C)C(F)(F)F)cc1F)C(C1CC1)C1CC1 [Compound 55, N-((S)-1,1-dicyclopropyl-3-((2-fluoro-4-((S)-1-oxo-1-(((S)-1,1,1-trifluoropropan-2-yl)amino)propan-2-yl)phenyl)amino)-3-oxopropan-2-yl)-1-isopropyl-1H-pyrazole-5-carboxamide]
pIC50: 6.00 to 7.00
